Literature values as cited in patent publication US20200085832A1, “DEUTERATED ANALOGS OF AN ORGANIC COMPOUND” (Agios Pharmaceuticals, Inc., priority 2019, published 2020).

Key:
mIDH1-driven gliomas = conditions: some model systems
mutant IDH2 (mIDH2) = conditions: D. Rohle et al. Science 340:626-630 (2013)
mutant IDH1 (mIDH1) = conditions: D. Rohle et al. Science 340:626-630 (2013)
mutant IDH1 = conditions: biochemical and cellular assays
mutant IDH2 = conditions: biochemical and cellular assays

Compound	growth of mIDH1-driven gliomas (mIDH1-driven gliomas)	inhibition of mutant IDH2 (mutant IDH2 (mIDH2))	inhibition of mutant IDH1 (mutant IDH1 (mIDH1))	inhibitor of mutant IDH1 protein (mutant IDH1)	inhibitor of mutant IDH2 protein (mutant IDH2)
Cc1ccccc1C(C(=O)NC1CCCCC1)N(C(=O)Cn1ccnc1C)c1cccc(F)c1 (centres unmarked) [AGI-5198]	repress growth of mIDH1-driven gliomas	not mutant IDH2 (mIDH2)	inhibit mutant IDH1 (mIDH1)	–	–
C[C@@H](Nc1nc(N[C@H](C)C(F)(F)F)nc(-c2cccc(Cl)n2)n1)C(F)(F)F [Compound X, 6-(6-chloropyridin-2-yl)-N^2,N^4-bis((R)-1,1,1-trifluoropropan-2-yl)-1,3,5-triazine-2,4-diamine]	–	–	–	inhibitor of mutant IDH1 and IDH2 proteins	inhibitor of mutant IDH1 and IDH2 proteins
